pEC50: −log10 of the molar value.
What was measured:
PKLNluc [1] = biological target: T1, PKLNluc (Homo sapiens, UniProt P30613); assay: NanoBRET with recombinant PKLNluc; conditions: tracer IV 100 nM, 450/550 nm, ± mitapivat
Protocol: Due to the low quantum yield of SBD‐containing IV (Table S1), we optimized the plate reader settings for the NanoBRET assay to maximize the signal‐to‐background (S/B) ratio. The fluorescence excitation spectrum of tracer IV overlapped with the emission band of PKLNluc (Figure 5a), prompting the screening of wavelength pairs within 400–600 nm.
The donor/acceptor wavelength pairs were recorded at 450/470 nm, 550/510 nm, 450/530 nm, 450/550 nm, 450/610 nm, 450/630 nm and 400/470 nm respectively. For each sample well, BRET ratios were calculated using the following formula:
Where AcceptorS is the luminescence intensity (FI) of the sample well at 550 nm, DonorS is the FI of the sample well at 450 nm, and AcceptorNT and DonorNT are the FI of the no-tracer control at 550 nm and 450 nm respectively.

PKLNluc and PKLwt = assay: Native PAGE in-gel fluorescence, PKLNluc and PKLwt; assay type: binding, human; conditions: IV 2.5 or 10 µM
Protocol: To study the interaction of IV with PKLNluc and its oligomers, native PAGE was performed (Figure 4). Recombinant PKLNluc was incubated for 2 h with IV (0.15–10 µM) or DMSO and loaded onto gels. […] Colloidal blue staining and western blotting with anti‐PKL antibodies confirmed the predominance and identity of the bands (Figure S11a,d). […] PKM2 and PKL exist in equilibrium between oligomeric states, with PKM2 mainly dimeric when unbound.^[ [18] ^] As oligomerization regulates PK function,^[ [11], [54] ^] PKLNluc oligomerization was compared to PKLwt and PKM2 (Figure 4b,c). […] Colloidal blue and anti‐PKM2 blots confirmed PKM2 was mostly monomeric, explaining the lack of binding (Figure S11).
Recombinant PKLNLuc (4 x 950 ng) was incubated for 1 hour at ambient temperature with different concentrations of compound IV in a total volume of 60 µL Tris-HCl buffer pH 7.4 (50 mM Tris, 100 mM KCl, 10 mM MgCl2, 0.05% Tween 20). PKM2 and PKL recombinants (2 x 950 ng) were also incubated for 1 hour at ambient temperature with different concentrations of the compound IV (0, 2.5 and 10 µM). […]
A ChemiDoc imager (Bio-Rad, Alexa 488 filter) was used for fluorescence detection of compound IV bound to the proteins. […] The images of the in-gel fluorescence and luminescence detection were superimposed. […]

PKM2 = PKM2 (Homo sapiens, UniProt P14618); assay: Recombinant PKM2 activity assay (Kinase-Glo MAX); assay type: biochemical; design: made in house
Chain of PKM2 (P14618 whole entry): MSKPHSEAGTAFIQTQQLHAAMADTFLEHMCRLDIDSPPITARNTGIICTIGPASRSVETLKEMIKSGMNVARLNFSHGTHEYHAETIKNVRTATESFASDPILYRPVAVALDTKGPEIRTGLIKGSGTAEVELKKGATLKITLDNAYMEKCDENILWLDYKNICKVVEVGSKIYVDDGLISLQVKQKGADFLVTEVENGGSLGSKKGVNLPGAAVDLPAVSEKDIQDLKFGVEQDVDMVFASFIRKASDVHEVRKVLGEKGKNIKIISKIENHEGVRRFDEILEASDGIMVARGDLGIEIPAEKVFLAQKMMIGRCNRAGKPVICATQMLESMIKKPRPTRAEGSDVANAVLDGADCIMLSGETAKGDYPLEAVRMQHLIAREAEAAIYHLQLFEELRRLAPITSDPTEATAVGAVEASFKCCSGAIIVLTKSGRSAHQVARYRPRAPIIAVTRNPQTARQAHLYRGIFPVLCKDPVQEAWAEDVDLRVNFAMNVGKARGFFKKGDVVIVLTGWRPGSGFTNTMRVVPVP
Protocol: As these compounds were binding to a known allosteric site on PK, the effects of ligands I–IV on the enzymatic activities of PKL and PKM2 were determined (Figure S2). The two isozymes were incubated with increasing concentrations of compounds before the addition of substrates PEP and adenosine diphosphate (ADP), and the reactions were monitored using a Kinase‐Glo MAX assay.
Figure S2. Effects of ligands I-IV on recombinant PK activities. PKL or PKM2 (10 nM) were pre-incubated with the compounds (0-100 µM) for 15 min following the addition of PEP (0.1 mM) and ADP (0.2 mM). The reactions were terminated by the addition of Kinase Glo-MAX reagent after 10 min, and the luminescence from each reaction was quantified using a plate reader. The activity values are expressed as a percentage of PK activity of the DMSO control. The potencies were calculated by best fit of the Hill equation to the luminescence data.^[2] (A) PKL titrations. (B) PKM2 titrations. Error bars represent the ±SE of replicates (n = 3).

PKLNluc [2] = biological target: T1, PKLNluc; assay: Live-cell NanoBRET assay in HEK293 cells; assay type: cell-based; design: host or cells: HEK293, transient transfection
Protocol: To investigate the intracellular interaction of tracer IV with PKLNluc, we prepared a mammalian expression construct, fusing Nluc to the N‐terminus of PKL. […] As a negative control for NanoBRET experiments, a construct expressing Nluc alone (without PKL) was also prepared.
Additionally, cell viability assays were conducted on cells transfected with either PKLNluc or Nluc plasmids and incubated with tracer IV (Figure S4b,c).
HEK293 cells were passed one day before transfection. The concentration of cells was adjusted to 2x10^5 cells/ml in Opti-MEM™ without phenol red (Invitrogen) supplemented with 1% FBS (Hyclone). Cells (4x10^6) were reversed transfected with 1 µg of PKLNluc plasmid or 1 µg Nluc plasmid and 9 µg of carrier DNA (Promega) using 30 µL of Fugene HD transfection reagent (Promega). […] Work solutions (100x) of tracer IV were prepared from DMSO stocks and further diluted to 20x concentrations with Tracer buffer (Promega). Twenty-five hours after transfection, the cells were treated with 5 µL/well of each of 20x concentrations of the tracer (final concentrations in the assay were in the range 0.001-1 µM, depending on the experiment). Thereafter, 10 µL of 10x solutions of competitors (diluted in Opti-MEM™ medium from stocks of 100x prepared in DMSO) were added to some sets of cells, while the other set received only Opti-MEM™ containing 1% DMSO. The cells were incubated for 2 h at 37°C (5% CO2). […] For each sample well, BRET ratios were calculated using the following formula:
BRET ratio mBU= AcceptorSDonorS-AcceptorNTDonorNT
Where AcceptorS is the luminescence intensity of the sample well at 550 nm, DonorS is the luminescence of the sample well at 450 nm, and AcceptorNT and DonorNT are the luminescence of the no-tracer control at 550 nm and 450 nm respectively.

T1 sequence (P30613 1-543 isoform P30613-2): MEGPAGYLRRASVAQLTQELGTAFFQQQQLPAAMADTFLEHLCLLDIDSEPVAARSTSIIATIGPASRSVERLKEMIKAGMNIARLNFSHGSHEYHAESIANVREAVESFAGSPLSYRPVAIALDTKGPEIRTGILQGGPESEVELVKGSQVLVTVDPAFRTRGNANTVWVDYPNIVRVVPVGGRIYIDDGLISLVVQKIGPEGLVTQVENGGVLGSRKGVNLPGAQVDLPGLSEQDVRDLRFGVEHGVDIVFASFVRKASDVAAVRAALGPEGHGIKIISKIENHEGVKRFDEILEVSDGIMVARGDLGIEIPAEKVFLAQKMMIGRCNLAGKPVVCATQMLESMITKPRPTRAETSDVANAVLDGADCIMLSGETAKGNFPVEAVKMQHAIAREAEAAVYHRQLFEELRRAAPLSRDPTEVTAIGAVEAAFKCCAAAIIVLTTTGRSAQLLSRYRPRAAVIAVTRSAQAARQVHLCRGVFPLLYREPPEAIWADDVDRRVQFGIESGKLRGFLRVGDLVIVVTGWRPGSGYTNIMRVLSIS

BRET assay window (PKLNluc [1]): 39 mBU
PKM2 E max (PKM2; recombinant PKM2): 449 % of vehicle
pEC50 (PKM2; recombinant PKM2 10 nM, 15 min pre-incubation, PEP 0.1 mM, ADP 0.2 mM): 7.77
tracer concentration above which nonspecific binding signals emerged (PKLNluc [2]; HEK293, PKLNluc): exceeding 400 nM
pEC50 (PKLNluc [2]; HEK293 transfected with PKLNluc, 2 h 37 °C, displacement control (20 µM mitapivat) subtracted, read-out: EC50 (cell), tracer titration, specific BRET signal): 7.74
SMILES: CN(C)c1ccc(S(=O)(=O)c2ccc3c(=O)n(Cc4cc[nH]n4)ncc3c2)c2nonc12 [Compound IV, 2-((1H-Pyrazol-3-yl)methyl)-6-((7-(dimethylamino)benzo[c][1,2,5]oxadiazol-4-yl)sulfonyl)phthalazin-1(2H)-one]
in-gel fluorescence labeling of oligomers (PKLNluc and PKLwt): labeling only of the tetramers
in-gel fluorescence labeling of oligomers (PKLNluc and PKLwt; listed as LumiPK): exclusively to the tetrameric form of PKL

— article PMC12518693, “Potent Fluorescent Probe for Target‐Engagement Studies of Allosteric Pyruvate Kinase Modulators” (Angewandte Chemie (International Ed. in English), 2025)
